Assay results from publication PMC4258814, “Differences between murine arylamine N-acetyltransferase type 1 and human arylamine N-acetyltransferase type 2 defined by substrate specificity and inhibitor binding” (BMC Pharmacology & Toxicology, 2014).
Where a chain is given by its changes, count along the chain named. Marks after values point to notes of the source that are not given here.

What was measured:
(MESAU)NAT2*1 [1] = test system: (MESAU)NAT2*1; set-up: method as in PMID 24758871; settings: read-out: IC50 with naphthoquinone 1, AcCoA 400 μM, substrate 4ABA, ref [26]; cited from earlier work
(MOUSE)NAT2_R127G [2] = molecular target: T1, (MOUSE)NAT2_R127G (Mus musculus, UniProt P50295, R127G); set-up: method as in PMID 23940600; settings: in presence of (MOUSE)NAT2_R127G; ref [25]; cited from earlier work
T1 construct: made in house
T1 sequence (P50295 1-290 R127G): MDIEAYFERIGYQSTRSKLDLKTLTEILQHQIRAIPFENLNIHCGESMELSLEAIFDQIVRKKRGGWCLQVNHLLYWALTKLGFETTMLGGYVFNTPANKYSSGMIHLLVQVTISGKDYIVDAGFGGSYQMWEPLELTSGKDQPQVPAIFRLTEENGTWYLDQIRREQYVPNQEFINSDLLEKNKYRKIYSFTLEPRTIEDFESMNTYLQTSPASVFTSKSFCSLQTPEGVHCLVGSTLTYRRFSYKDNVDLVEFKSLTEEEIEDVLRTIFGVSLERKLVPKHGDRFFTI

(MOUSE)NAT2*1 [3] = molecular target: T2, (MOUSE)NAT2*1 (Mus musculus, UniProt P50295); set-up: method as in PMID 23940600, PMID 20170182; settings: in presence of (MOUSE)NAT2*1; ref [25], [24]; cited from earlier work
T2 construct: made in house
T2 sequence (P50295 1-290): T1 sequence (P50295 1-290 R127G) with G127R

(HUMAN)NAT1*4 [4] = test system: (HUMAN)NAT1*4; set-up: method as in PMID 23940600; settings: read-out: IC50 with naphthoquinone 1, AcCoA 400 μM, substrate 4ABA, ref [25]; cited from earlier work
(MOUSE)NAT1*1 [5] = molecular target: T3, (MOUSE)NAT1*1 (Mus musculus, UniProt P50294); assay: Inhibition of NAT activity (AcCoA hydrolysis rate); type: biochemical; settings: AcCoA 400 μM, substrate 5AS, 5% DMSO
T3 construct: The open reading frame of (MOUSE)Nat1*1 [32] was subcloned; hexa-His (N, cleaved yes); made in house; host or cells: Escherichia coli BL21(DE3)CodonPlus-RIL
T3 sequence (P50294 1-290): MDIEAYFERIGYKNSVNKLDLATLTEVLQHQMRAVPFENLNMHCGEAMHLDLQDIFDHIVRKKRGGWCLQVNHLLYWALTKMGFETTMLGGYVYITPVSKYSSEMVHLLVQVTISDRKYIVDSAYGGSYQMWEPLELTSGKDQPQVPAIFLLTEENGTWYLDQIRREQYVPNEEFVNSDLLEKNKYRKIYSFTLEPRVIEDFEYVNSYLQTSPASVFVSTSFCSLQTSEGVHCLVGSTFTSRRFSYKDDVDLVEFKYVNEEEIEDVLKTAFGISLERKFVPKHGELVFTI
Description: (§1) The final concentration of dimethyl sulphoxide (DMSO) in reaction mixes was 5% (v/v). IC50 values were estimated using a dose–response-based regression model in Kyplot® software. Curves were fitted by least squares analysis with confidence limits of 95%.

(MOUSE)NAT2_F125S [6] = molecular target: T4, (MOUSE)NAT2_F125S (Mus musculus, UniProt P50295, F125S); assay: Inhibition of NAT activity (AcCoA hydrolysis rate); type: biochemical; settings: AcCoA 400 μM, substrate 5AS, 5% DMSO
T4 construct: His tag (only implied by Ni-NTA purification) (cleaved yes); made in house; host or cells: E. coli Rosetta(DE3)pLysS
T4 sequence (P50295 1-290 F125S): T1 sequence (P50295 1-290 R127G) with F125S, G127R
Description: as §1

(HUMAN)NAT2*4 [7] = molecular target: T5, (HUMAN)NAT2*4 (Homo sapiens, UniProt P11245); assay: Inhibition of NAT activity (AcCoA hydrolysis rate); type: biochemical; settings: AcCoA 400 μM, substrate 2-aminofluorene, 5% DMSO
T5 construct: made in house
T5 sequence (P11245 1-290): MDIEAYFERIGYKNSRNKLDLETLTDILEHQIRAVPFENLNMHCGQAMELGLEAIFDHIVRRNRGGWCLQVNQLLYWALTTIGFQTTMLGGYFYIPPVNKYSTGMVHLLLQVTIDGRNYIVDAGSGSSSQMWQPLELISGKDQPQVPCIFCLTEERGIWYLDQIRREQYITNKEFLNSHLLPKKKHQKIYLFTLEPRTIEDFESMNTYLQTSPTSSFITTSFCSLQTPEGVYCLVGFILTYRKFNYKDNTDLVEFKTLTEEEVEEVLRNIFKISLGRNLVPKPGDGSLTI
Description: as §1

(MOUSE)NAT2*1 [8] = molecular target: T2, (MOUSE)NAT2*1; set-up: method as in PMID 23940600, PMID 20170182; settings: read-out: IC50 with naphthoquinone 1, AcCoA 400 μM, substrate 4ABA, ref [25], [24]; cited from earlier work
(MOUSE)NAT1*1 [9] = molecular target: T3, (MOUSE)NAT1*1; set-up: method as in PMID 20170182; settings: in presence of (MOUSE)NAT1*1; ref [24]; cited from earlier work
(HUMAN)NAT2*4 [10] = molecular target: T5, (HUMAN)NAT2*4; set-up: method as in PMID 23940600; settings: in presence of (HUMAN)NAT2*4; ref [25]; cited from earlier work
(MOUSE)NAT2_R127L [11] = molecular target: T6, (MOUSE)NAT2_R127L (Mus musculus, UniProt P50295, R127L); set-up: method as in PMID 23940600; settings: in presence of (MOUSE)NAT2_R127L; ref [25]; cited from earlier work
T6 construct: made in house
T6 sequence (P50295 1-290 R127L): T1 sequence (P50295 1-290 R127G) with G127L

(MOUSE)NAT2*1 [12] = molecular target: T2, (MOUSE)NAT2*1; assay: Substrate specific N-acetylation profile; type: biochemical; settings: substrate 500 μM, relative to substrate with highest specific activity (100%), mean of 3 ± SD
(MOUSE)NAT2_F125S [13] = molecular target: T4, (MOUSE)NAT2_F125S; assay: Substrate specific N-acetylation profile; type: biochemical; settings: (MOUSE)NAT2 F125S; substrate 500 μM; relative to substrate with highest specific activity (100%); mean of 3 ± SD
(HUMAN)NAT1*4 [14] = test system: (HUMAN)NAT1*4; set-up: method as in PMID 15627487, PMID 18280460; settings: substrate 500 μM, relative to substrate with highest specific activity (100%), mean of 3 ± SD, ref [8], [22]; cited from earlier work
(MOUSE)NAT2_R127L [15] = molecular target: T6, (MOUSE)NAT2_R127L; assay: Substrate specific N-acetylation profile; type: biochemical; settings: (MOUSE)NAT2 R127L; substrate 500 μM; relative to substrate with highest specific activity (100%); mean of 3 ± SD
(MOUSE)NAT1*1 [16] = molecular target: T3, (MOUSE)NAT1*1; assay: Substrate specific N-acetylation profile; type: biochemical; settings: substrate 500 μM, relative to substrate with highest specific activity (100%), mean of 3 ± SD
(MESAU)NAT2*1 [17] = test system: (MESAU)NAT2*1; set-up: method as in PMID 15627487, PMID 18280460; settings: substrate 500 μM, relative to substrate with highest specific activity (100%), mean of 3 ± SD, ref [8], [22]; cited from earlier work
[18] = ref [56]–[61]; cited from earlier work
(MOUSE)NAT2_R127G [19] = molecular target: T1, (MOUSE)NAT2_R127G; assay: Substrate specific N-acetylation profile; type: biochemical; settings: (MOUSE)NAT2 R127G; substrate 500 μM; relative to substrate with highest specific activity (100%); mean of 3 ± SD
(HUMAN)NAT2*4 [20] = molecular target: T5, (HUMAN)NAT2*4; set-up: method as in PMID 15627487, PMID 18280460; settings: substrate 500 μM, relative to substrate with highest specific activity (100%), mean of 3 ± SD, ref [8], [22]; cited from earlier work

Structure (SMILES) | IC50 ((MESAU)NAT2*1 [1]) | λ max of naphthoquinone 1 ((MOUSE)NAT2_R127G [2]) | λ max of naphthoquinone 1 ((MOUSE)NAT2*1 [3]) | IC50 ((HUMAN)NAT1*4 [4]) | IC50 ((MOUSE)NAT1*1 [5]) | IC50 ((MOUSE)NAT2_F125S [6]) | IC50 ((HUMAN)NAT2*4 [7]) | IC50 ((MOUSE)NAT2*1 [8]) | λ max of naphthoquinone 1 ((MOUSE)NAT1*1 [9]) | λ max of naphthoquinone 1 ((HUMAN)NAT2*4 [10]) | λ max of naphthoquinone 1 ((MOUSE)NAT2_R127L [11]) | % specific activity values ((MOUSE)NAT2*1 [12]) | % specific activity values ((MOUSE)NAT2_F125S [13]) | % specific activity values ((HUMAN)NAT1*4 [14]) | % specific activity values ((MOUSE)NAT2_R127L [15]) | % specific activity values ((MOUSE)NAT1*1 [16]) | % specific activity values ((MESAU)NAT2*1 [17]) | pKa(H) (NH3^+) [18] | % specific activity values ((MOUSE)NAT2_R127G [19]) | % specific activity values ((HUMAN)NAT2*4 [20])
Cc1cc(C)cc(NC2=C(NS(=O)(=O)c3ccccc3)C(=O)c3ccccc3C2=O)c1 [naphthoquinone 1, N-(3-(3,5-dimethylphenylamino)-1,4-dioxo-1,4-dihydronaphthalen-2-yl)benzenesulphonamide] | 89 µM | 498^a nm | 625^a,b nm | 5.3 µM | 130 µM | 68.7 µM | > 100 µM | 1.3 µM | 498^b nm | 498^a nm | 498^a nm |  |  |  |  |  |  |  |  | 
CCCCCCOc1ccc(N)cc1 [HOA, 4-hexyloxyaniline] |  |  |  |  |  |  |  |  |  |  |  | 23 ± 2% | 47 ± 1% | 12 ± 4% | 80 ± 8% | 3 ± 4% | 35 ± 1% | 5.1 (NH3^+) | 59 ± 3% | 51 ± 2%
